Reference: patent US9675614B2, “PRMT5 inhibitors and uses thereof” (Epizyme, Inc., priority 2012, dated 2017)

Biological target: PRMT5/MEP50 (Homo sapiens (Human), UniProt O14744)
Experiment: PRMT5 Biochemical Assay (PRMT5/MEP50 enzyme assay on peptide substrate, 3H-SAM Flashplate)
Settings: PRMT5/MEP50 biochemical assay; read-out: Biochemical IC50
Description: S-adenosylmethionine (SAM), S-adenosylhomocysteine (SAH), bicine, KCl, Tween20, dimethylsulfoxide (DMSO), bovine skin gelatin (BSG), and Tris(2-carboxyethyl)phosphine hydrochloride solution (TCEP) were purchased from Sigma-Aldrich at the highest level of purity possible. ^3H-SAM was purchase from American Radiolabeled Chemicals with a specific activity of 80 Ci/mmol. 384-well streptavidin Flashplates were purchased from PerkinElmer.
Peptide representative of human histone H4 residues 1-15 was synthesized with a C-terminal linker-affinity tag motif and a C-terminal amide cap by 21st Century Biochemicals. […] The sequence was Ac-[…][K-Biot]amide (SEQ ID NO.:3).
Full-length human MEP50 (NM_024102) clone was amplified from a human testis cDNA library incorporating a 5′ sequence encoding a 6-histidine tag (MHHHHHH) (SEQ ID NO.:5) fused directly to Arg 2 of MEP50. The amplified genes were subcloned into pENTR/D/TEV (Life Technologies) and subsequently transferred by Gateway™ attL×attR recombination to pDEST8 baculvirus expression vector (Life Technologies).
Recombinant baculovirus and Baculovirus-Infected Insect Cells (BIIC) were generated according to Bac-to-Bac kit instructions (Life Technologies) and Wasilko, 2006, respectively. Protein over-expression was accomplished by infecting exponentially growing Spodoptera frugiperda (SF9) cell culture at 1.2×10^6 cell/ml with a 5000 fold dilution of BIIC stock. Infections were carried out at 27° C. for 72 hours, harvested by centrifugation, and stored at −80° C. for purification.
Flag-PRMT5/6His-MeP50 was eluted with 300 mM Imidazole in the same buffer. […] Reference: Wasilko, D. J. and S. E. Lee: “TIPS: titerless infected-cells preservation and scale-up” Bioprocess J., 5 (2006), pp. 29-32.
General Procedure for PRMT5/MEP50 Enzyme Assays on Peptide Substrates.
The assays were all performed in a buffer consisting of 20 mM Bicine (pH=7.6), 1 mM TCEP, 0.005% BSG, and 0.002% Tween20, prepared on the day of use. Compounds in 100% DMSO (1 ul) were spotted into a polypropylene 384-well V-bottom plates (Greiner) using a Platemate Plus outfitted with a 384-channel head (Thermo Scientific). DMSO (1 ul) was added to Columns 11, 12, 23, 24, rows A-H for the maximum signal control and 1 ul of SAH, a known product and inhibitor of PRMT5/MEP50, was added to columns 11, 12, 23, 24, rows I-P for the minimum signal control. A cocktail (40 ul) containing the PRMT5/MEP50 enzyme and the peptide was added by Multidrop Combi (Thermo-Fisher). The compounds were allowed to incubate with PRMT5/MEP50 for 30 min at 25 degrees Celsius, then a cocktail (10 ul) containing ^3H-SAM was added to initiate the reaction (final volume=51 ul). The final concentrations of the components were as follows: PRMT5/MEP50 was 4 nM, ^3H-SAM was 75 nM, peptide was 40 nM, SAH in the minimum signal control wells was 100 uM, and the DMSO concentration was 1%. The assays were stopped by the addition of non-radioactive SAM (10 ul) to a final concentration of 600 uM, which dilutes the ^3H-SAM to a level where its incorporation into the peptide substrate is no longer detectable. 50 ul of the reaction in the 384-well polypropylene plate was then transferred to a 384-well Flashplate and the biotinylated peptides were allowed to bind to the streptavidin surface for at least 1 hour before being washed three times with 0.1% Tween20 in a Biotek ELx405 plate washer. The plates were then read in a PerkinElmer TopCount plate reader to measure the quantity of ^3H-labeled peptide bound to the Flashplate surface, measured as disintegrations per minute (dpm) or alternatively, referred to as counts per minute (cpm).
[formula] Where dpm=disintegrations per minute, cmpd=signal in assay well, and min and max are the respective minimum and maximum signal controls.
[formula] Where top and bottom are the normally allowed to float, but may be fixed at 100 or 0 respectively in a 3-parameter fit.

Chain of PRMT5/MEP50 (O14744 other isoform, or with tags, fused parts or gaps): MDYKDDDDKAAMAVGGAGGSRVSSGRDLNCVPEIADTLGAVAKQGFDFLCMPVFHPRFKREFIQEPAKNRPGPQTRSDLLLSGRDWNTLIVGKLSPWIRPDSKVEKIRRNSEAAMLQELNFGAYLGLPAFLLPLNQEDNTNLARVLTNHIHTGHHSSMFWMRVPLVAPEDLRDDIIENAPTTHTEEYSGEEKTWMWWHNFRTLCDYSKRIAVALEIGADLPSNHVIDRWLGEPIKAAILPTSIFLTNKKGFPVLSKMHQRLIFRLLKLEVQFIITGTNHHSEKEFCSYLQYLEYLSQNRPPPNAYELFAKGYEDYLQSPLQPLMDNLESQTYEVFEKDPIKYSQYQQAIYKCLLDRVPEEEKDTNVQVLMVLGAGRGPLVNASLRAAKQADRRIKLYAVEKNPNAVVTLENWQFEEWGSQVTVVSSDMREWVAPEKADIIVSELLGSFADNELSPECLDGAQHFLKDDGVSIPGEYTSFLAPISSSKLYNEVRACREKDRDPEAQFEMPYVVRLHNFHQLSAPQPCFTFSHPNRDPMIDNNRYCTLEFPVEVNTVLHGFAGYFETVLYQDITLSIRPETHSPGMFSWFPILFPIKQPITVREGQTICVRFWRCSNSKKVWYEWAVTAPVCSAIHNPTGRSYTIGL
Chain of PRMT5/MEP50 (Q9BQA1 other isoform, or with tags, fused parts or gaps partner): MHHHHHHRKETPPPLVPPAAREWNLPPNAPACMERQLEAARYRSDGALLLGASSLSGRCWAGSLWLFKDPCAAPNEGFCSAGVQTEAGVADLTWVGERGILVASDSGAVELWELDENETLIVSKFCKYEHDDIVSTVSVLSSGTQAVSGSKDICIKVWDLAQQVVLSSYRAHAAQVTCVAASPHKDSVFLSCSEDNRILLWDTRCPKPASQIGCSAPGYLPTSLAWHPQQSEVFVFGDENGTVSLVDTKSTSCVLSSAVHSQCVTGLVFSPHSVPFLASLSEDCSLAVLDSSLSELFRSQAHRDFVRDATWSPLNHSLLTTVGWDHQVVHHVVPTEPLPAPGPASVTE

| SMILES | IC50 [nM] |
| --- | --- |
| COCCNc1cccc(C(=O)NCC(O)CN2CCc3ccccc3C2)c1 (stereo not shown) [Compound 72] | 101 to 1000 |
| NCCN1CCN(Cc2cccc(C(=O)NCC(O)CN3CCc4ccccc4C3)c2)CC1 (stereo not shown) [Compound 147] | < 100 |
| CN1CCC(N(C)c2cccc(C(=O)NCC(O)CN3CCc4ccccc4C3)c2)CC1 (stereo not shown) [Compound 131] | < 100 |
| O=C(NCC(O)CN1CCc2ccccc2C1)c1cccc(OCCN2CCOCC2)c1 (stereo not shown) [Compound 133] | < 100 |
| O=C(NC[C@H](O)CN1CCc2ccccc2C1)c1cccc(OC2CCOCC2)c1 [Compound 82] | < 100 |
| O=C(NC[C@H](O)CN1CCc2ccccc2C1)c1cncc(NC2CCN(CC(F)(F)F)C2)c1 (stereo partly shown) [Compound 303] | < 100 |
| O=C(NC[C@H](O)CN1CCc2ccccc2C1)c1ccc2[nH]cnc2c1 [Compound 294] | 101 to 1000 |
| O=C(NC[C@H](O)CN1CCc2ccccc2C1)c1ccnc(NCC2CCCNC2)c1 (stereo partly shown) [Compound 236] | < 100 |
| O=C(NCC(O)CN1CCc2ccccc2C1)c1cccc(CN2CCN(CCO)CC2)c1 (stereo not shown) [Compound 113] | < 100 |
| CN1CC(Nc2cc(C(=O)NC[C@H](O)CN3CCc4ccccc4C3)ncn2)C1 [Compound 281] | < 100 |
| O=C(NC[C@@H](O)CN1CCc2ccccc2C1)c1cccc(OC2CCOCC2)c1 [Compound 83] | 101 to 1000 |
| O=C(NC[C@H](O)CN1CCc2ccccc2C1)c1ccnc(OC2CCOCC2)c1 [Compound 323] | < 100 |
| CC(=O)N1CCC(Nc2cccc(C(=O)NCC(O)CN3CCc4ccccc4C3)c2)C1 (stereo not shown) [Compound 121] | < 100 |
| CN1CCN(Cc2ccc(C(=O)NCC(O)CN3CCc4ccccc4C3)cc2)CC1 (stereo not shown) [Compound 163] | < 100 |
| C[C@H]1CC(Nc2cccc(C(=O)NC[C@H](O)CN3CCc4ccccc4C3)c2)CCO1 (stereo partly shown) [Compound 167] | < 100 |
| CN1CCC(Nc2cccc(C(=O)NCC(O)CN3CCc4ccccc4C3)c2)CC1 (stereo not shown) [Compound 123] | < 100 |
| CS(=O)(=O)N1CCN(Cc2cccc(C(=O)NCC(O)CN3CCc4ccccc4C3)c2)CC1 (stereo not shown) [Compound 91] | < 100 |
| O=C(NCC(O)CN1CCc2ccccc2C1)c1cccc(NC2CCOCC2O)c1 (stereo not shown) [Compound 98] | < 100 |
| Cc1cnc(NC2CCOC2)cc1C(=O)NC[C@H](O)CN1CCc2ccccc2C1 (stereo partly shown) [Compound 308] | < 100 |
| COCCCNc1cccc(C(=O)NCC(O)CN2CCc3ccccc3C2)c1 (stereo not shown) [Compound 69] | 101 to 1000 |

| SMILES | IC50 [nM] |
| --- | --- |
| COCCN1CCC(Oc2ccc(C(=O)NC[C@H](O)CN3CCc4ccccc4C3)cc2)CC1 [Compound 329] | < 100 |
| O=C(NC[C@@H](O)CN1CCc2ccccc2C1)c1cc(NC2CCOCC2)ncn1 [Compound 185] | < 100 |
| O=C(NCC(O)CN1CCc2ccccc2C1)c1cccc(CNC2CCOCC2)c1 (stereo not shown) [Compound 15, N-(3-(3,4-dihydroisoquinolin-2(1H)-yl)-2-hydroxypropyl)-3-(((tetrahydro-2H-pyran-4-yl)amino)methyl)benzamide] | < 100 |
| O=C(NC[C@H](O)CN1CCc2ccccc2C1)c1cc2ccccc2o1 [Compound 271] | < 100 |
| O=C(NCC(O)CN1CCc2ccccc2C1)c1cccc(NCCN2CCOCC2)c1 (stereo not shown) [Compound 61] | 101 to 1000 |
| O=C(NC[C@H](O)CN1CCc2ccccc2C1)c1cc(NC2CCN(CC(F)(F)F)C2)ncn1 (stereo partly shown) [Compound 182] | < 100 |
| O=C(NC[C@H](O)CN1CCc2ccccc2C1)c1cc2c(F)cccc2[nH]1 [Compound 296] | < 100 |
| CN(c1ccc(C(=O)NCC(O)CN2CCc3ccccc3C2)cc1)C1CCOC1 (stereo not shown) [Compound 144] | < 100 |
| CS(=O)(=O)Nc1cccc(C(=O)NCC(O)CN2CCc3ccccc3C2)c1 (stereo not shown) [Compound 24] | < 100 |
| O=C(NC[C@H](O)CN1CCc2ccccc2C1)c1ccc(OC2CCN(CCO)CC2)cc1 [Compound 321] | < 100 |
| O=C(NCC(O)CN1CCc2ccccc2C1)c1cccc(OC2CCNC2)c1 (stereo not shown) [Compound 119] | < 100 |
| Cc1ccc(NC2CCOCC2)cc1C(=O)NCC(O)CN1CCc2ccccc2C1 (stereo not shown) [Compound 95] | 101 to 1000 |
| O=C(NCC(O)CN1CCc2ccccc2C1)c1ccc(OC2CCNCC2)cc1 (stereo not shown) [Compound 104] | < 100 |
| O=C(NC[C@H](O)CN1CCc2ccccc2C1)c1ccc2cc(O)ccc2c1 [Compound 318] | < 100 |
| CN1CCOC(CNc2cc(C(=O)NC[C@H](O)CN3CCc4ccccc4C3)ccn2)C1 (stereo partly shown) [Compound 265] | < 100 |
| O=C(NC[C@H](O)CN1CCc2ccccc2C1)c1ccnc(NCC2CCCCN2)c1 (stereo partly shown) [Compound 237] | < 100 |
| CN(C[C@H](O)CN1CCc2ccccc2C1)C(=O)c1cc(NC2CCOCC2)ncn1 [Compound 232] | 101 to 1000 |
| O=C(NCC(O)CN1CCc2ccccc2C1)c1cccc(CO)c1 (stereo not shown) [Compound 151] | 101 to 1000 |
| CNCCN(C)c1cc(C(=O)NC[C@H](O)CN2CCc3ccccc3C2)ccn1 [Compound 233] | < 100 |
| Cc1c(NC2CCOCC2)ncnc1C(=O)NC[C@H](O)CN1CCc2ccccc2C1 [Compound 231] | < 100 |

| SMILES | IC50 [nM] |
| --- | --- |
| O=C(NCC(O)CN1CCc2ccccc2C1)c1ccc2c(c1)OCCN2 (stereo not shown) [Compound 88] | 101 to 1000 |
| O=C(NC[C@H](O)CN1CCc2ccccc2C1)c1ccnc(NCC2CC2)c1 [Compound 187] | < 100 |
| O=C(NC[C@H](O)CN1CCc2ccccc2C1)c1ccnc(OC2CCNCC2)c1 [Compound 229] | < 100 |
| O=C(NCC(O)CN1CCc2ccccc2C1)c1cn[nH]c1-c1ccccc1 (stereo not shown) [Compound 112] | 101 to 1000 |
| Cn1nc(NC2CCOCC2)cc1C(=O)NCC(O)CN1CCc2ccccc2C1 (stereo not shown) [Compound 311] | < 100 |
| O=C(NC[C@H](O)CN1CCc2ccccc2C1)c1ccnc(NC2CCN(CC(F)(F)F)C2)c1 (stereo partly shown) [Compound 226] | < 100 |
| CN1CCN(Cc2cccc(C(=O)NCC(O)CN3CCc4ccccc4C3)c2)C(CO)C1 (stereo not shown) [Compound 115] | < 100 |
| CC(C)N1CCC(Oc2ccc(C(=O)NCC(O)CN3CCc4ccccc4C3)cc2)C1 (stereo not shown) [Compound 196] | < 100 |
| NC(=O)CN1CCN(Cc2cccc(C(=O)NCC(O)CN3CCc4ccccc4C3)c2)CC1 (stereo not shown) [Compound 172] | < 100 |
| Cc1c(NC2CCOCC2)cccc1C(=O)NCC(O)CN1CCc2ccccc2C1 (stereo not shown) [Compound 40, N-(3-(3,4-dihydroisoquinolin-2(1H)-yl)-2-hydroxypropyl)-2-methyl-3-((tetrahydro-2H-pyran-4-yl)amino)benzamide] | < 100 |
| CN1CCN(c2cccc(C(=O)NCC(O)CN3CCc4ccccc4C3)c2)CC1 (stereo not shown) [Compound 36] | < 100 |
| O=C(NCC(O)CN1CCc2ccccc2C1)c1ccc(OC2CCOCC2)cc1 (stereo not shown) [Compound 58, N-(3-(3,4-dihydroisoquinolin-2(1H)-yl)-2-hydroxypropyl)-4-((tetrahydro-2H-pyran-4-yl)oxy)benzamide] | < 100 |
| O=C(NC[C@@H](O)CN1CCc2ccccc2C1)c1ccnc(NC2CCOCC2)c1 [Compound 184] | < 100 |
| COCCCNc1cccc(C(=O)NCC(O)CN2CCc3ccccc3C2)c1 (stereo not shown) [Compound 70] | 101 to 1000 |
| O=C(NCC(O)CN1CCc2ccccc2C1)c1cccc(OC2CCN(CC(F)(F)F)C2)c1 (stereo not shown) [Compound 137] | < 100 |
| O=C(NC[C@@H](O)CN1CCc2ccccc2C1)c1ccc2ncccc2c1 [Compound 218] | < 100 |
| O=C(NCC(O)CN1CCc2ccccc2C1)c1cccc(-n2cncn2)c1 (stereo not shown) [Compound 130] | < 100 |
| Cc1ncc(NC2CCNC2)cc1C(=O)NC[C@H](O)CN1CCc2ccccc2C1 (stereo partly shown) [Compound 310] | 101 to 1000 |
